From patent publication US20100184807A1, “Methods to inhibit tumor cell growth by using proton pump inhibitors” (Bio-Quant, Inc., priority 2008, published 2010)

Legend:
Assay in all cases: MTT tumor cell growth assay
Type in all cases: cell-based
HCC2998 (colon cancer) = conditions: HCC2998 cells, lansoprazole 1-100 μM, 48 hours
Experimental: (§1) In one study, adherent cells were plated approximately 16-24 hours before the day of the experiment in 180 μl growth media. On the day of the experiment, the plated adherent cells were analyzed and counted and suspension cells were plated in 180 μl growth media. 10× lansoprazole compounds and vehicle was prepared. The 10× lansoprazole compounds were prepared by diluting lansoprazole to final concentrations of 100 μM, 30 μM, 10 μM, 3 μM, and 1 μM. A vehicle was prepared by preparing a solution of PBS, equivalent to the volume used for 10 μM lansoprazole wherein the 1× solution constitutes ˜0.06% PBS. 10 μl of the various 10× lansoprazole solutions and the vehicle were added to the cells. The cells were incubated at 37° C., 5% CO2 for 48 hours. The media was then aspirated. The cell suspension was then spun at 1500 RPM for 10 minutes. The media was slowly removed. 200 μl of MTT solution was added to each well with a concentration of 0.863 mg/ml MTT in the growth media. The cells were incubated at 37° C., 5% CO2 for 4 hours and the medium is then aspirated. The plate containing the cell suspension was then spun at 1500 RPM for 10 minutes. The media was slowly removed using a multichannel pipettor. 100 μl of DMSO was then added to each well. The cells were incubated at 37° C., 5% CO2 for 5 minutes and the absorbance was obtained at 560 nm using a Dynex Opsys MR plate reader. The cells used for this procedure were the following cell lines: IGROV1 (ovarian cancer); OVCAR 8 (ovarian cancer); ES-2 (ovarian cancer); CAOV3 (ovarian cancer); OVCAR5 (ovarian cancer); SUDHL4 (lymphoma); RPMI8226 (myeloma); RPMI6666 (Hodgkin's lymphoma); NC37 (lymphoma); GDM-1 (leukemia); MC/CAR (prostate cancer); DU-145 (prostate cancer), J45-01 (leukemia), MOLT3 (leukemia), HUT78, J-gamma-1 (leukemia), MCF7 […], COL0205 (colon cancer), HL60 CLONE 15 (leukemia), T47D (breast cancer), P116 (intestinal cancer), KU812 (leukemia), SW620 (colon cancer), MK92-M1 (lymphoma), MV-4-11 (leukemia), HS578T (breast cancer), HT29 (colon cancer), HCT 116 (colon cancer), CAKI-1 (kidney cancer), A549 (lung cancer), H460 (lung cancer), A3 (colon cancer), MDA-MB231 […], MALME 3M (melanoma), RXF393 (kidney cancer), RS4.11 (leukemia), PC3 (prostate cancer), OVCAR3 (ovarian cancer), MDA-MB435 (melanoma), HUT102 (lymphoma), HL60 (leukemia), CCRF-CEM (leukemia), HUT78 (lymphoma), 786-O (kidney cancer), ACHN (kidney cancer), A498 (kidney cancer), H226 (lung cancer), H522 (lung cancer), HOP92 (lung cancer), SNB 19 (brain cancer), OVCAR4 (ovarian cancer), H9 (lymphoma), UO-31 (kidney cancer), HH (lymphoma), DAUDI (leukemia), LOXIMVI (melanoma), NAMALWA (lymphoma), EKVX (lung cancer), DOHH2 (lymphoma), SNB75 (brain cancer), SKMEL28 (melanoma), SKMEL5 (melanoma), SKMEL2 (melanoma), M14 (melanoma), UACC 257 (melanoma), H332M (lung cancer), KM12 (colon cancer), HCC2998 (colon cancer), G401 (kidney cancer), RS1184 (lymphoma), MC116 (leukemia), MOLT4 (leukemia), JM1 (liver cancer), HOP-62 (lung cancer), HCT-15 (colon cancer), SF-539 (brain cancer), SF295 (brain cancer), ST486 (lymphoma), U251 (brain cancer), and UACC-62 (melanoma).

MDA-MB-231 = MDA-MB-231 cells, lansoprazole 1-100 μM, 48 hours
Experimental: as §1

SKMEL2 (melanoma) = conditions: SKMEL2 cells, lansoprazole 1-100 μM, 48 hours
Experimental: as §1

MV-4-11 (leukemia) = conditions: MV-4-11 cells, lansoprazole 1-100 μM, 48 hours
Experimental: as §1

MOLT4 (leukemia) = conditions: MOLT4 cells, lansoprazole 1-100 μM, 48 hours
Experimental: as §1

HH (lymphoma) = conditions: HH cells, lansoprazole 1-100 μM, 48 hours
Experimental: as §1

EKVX (lung cancer) = conditions: EKVX cells, lansoprazole 1-100 μM, 48 hours
Experimental: as §1

NK92MI = NK92MI cells, lansoprazole 1-100 μM, 48 hours
Experimental: as §1

NAMALWA (lymphoma) = conditions: NAMALWA cells, lansoprazole 1-100 μM, 48 hours
Experimental: as §1

H460 (lung cancer) = conditions: H460 cells, lansoprazole 1-100 μM, 48 hours
Experimental: as §1

HUT102 (lymphoma) = conditions: HUT102 cells, lansoprazole 1-100 μM, 48 hours
Experimental: as §1

J-gamma-1 (leukemia) = conditions: J-gamma-1 cells, lansoprazole 1-100 μM, 48 hours
Experimental: as §1

H226 (lung cancer) = conditions: H226 cells, lansoprazole 1-100 μM, 48 hours
Experimental: as §1

H9 (lymphoma) = conditions: H9 cells, lansoprazole 1-100 μM, 48 hours
Experimental: as §1

JMI = JMI cells, lansoprazole 1-100 μM, 48 hours
Experimental: as §1

DOHH2 (lymphoma) = conditions: DOHH2 cells, lansoprazole 1-100 μM, 48 hours
Experimental: as §1

SW620 (colon cancer) = conditions: SW620 cells, lansoprazole 1-100 μM, 48 hours
Experimental: as §1

P116 (intestinal cancer) = conditions: P116 cells, lansoprazole 1-100 μM, 48 hours
Experimental: as §1

Measured: tumor cell growth reduction

Cc1c(OCC(F)(F)F)ccnc1C[S+]([O-])c1nc2ccccc2[nH]1 (stereo not drawn) [lansoprazole]
significant tumor cell growth reduction: HCC2998 (colon cancer) | MDA-MB-231 | SKMEL2 (melanoma) | MV-4-11 (leukemia) | MOLT4 (leukemia) | HH (lymphoma) | EKVX (lung cancer) | NK92MI | NAMALWA (lymphoma) | H460 (lung cancer) | HUT102 (lymphoma) | J-gamma-1 (leukemia) | H226 (lung cancer) | H9 (lymphoma) | JMI | DOHH2 (lymphoma) | SW620 (colon cancer) | P116 (intestinal cancer)
